Measured values as given in US20170165317A1, “METHOD FOR MITIGATING OR ALLEVIATING SYNAPTIC AND COGNITIVE DEFICITS” (Trustees of Dartmouth College, priority 2013, published 2017).
Square brackets hold non-standard residues; d marks the D form. Peptide text beside a SMILES is read from it. * marks the point of attachment. ξ: configuration not given here. Myristoyl = CCCCCCCCCCCCCC(=O)*; dThr(3ξ) = CC(O)[C@@H](N)C(=O)O; Ile(3ξ) = CCC(C)[C@H](N)C(=O)O

Columns and labels:
[1] = system: APP/PS1 mice; experiment: Novel object location task after i.c.v. infusion by osmotic minipump; format: in vivo, mouse; settings: APP/PS1 mice, peptide 2 mM in pump, i.c.v. 3-4 weeks; p=0.027 vs vehicle-infused APP/PS1; recognition index similar to wild-type
Procedure: APP/PS1 and wild-type mice were anesthetized with isofluorane, and i.c.v. delivery cannulas (brain alzet kit III) were implanted with a stereotaxic frame (KOPF Instruments) at the following coordinates according to the bregma: AP, −0.5 mm; ML, 1 mm; and DV, −2.2 mm. Osmotic minipumps (Alzet) were filled with artificial cerebrospinal fluid (aCSF) with or without PTEN inhibitor VO-OHpic (2.5 μM) and equilibrated in 0.9% NaCl at 37° C. for 48 hours. They were attached to the i.c.v. cannula tubing and subcutaneously implanted at the back. After 21 days, behavioral testing was started as described herein. One month after implantation, mice were sacrificed and the brains were sliced stained with Nissl to verify the location of the cannula. Animal manipulation and data analysis was carried out blind with respect to genotype and treatment.
Novel-Object Location. This assay was chosen because it is not intrinsically stressful. This factor, in mice, crucially affects cognitive performance in other spatial learning paradigms (e.g., Morris water maze). The memory tests were composed of three phases—“habituation”, “sample” and “choice” trials. Mice were first habituated individually to an empty open-field box (35×35×15 high cm) for 30 minutes. A sample trial (object exposure) consisted of placing a mouse into the test box which contained two identical objects. […] A recognition index was calculated by dividing the total time spent exploring the displaced object by the total time spent exploring both objects during the test session. […]
It was posited that if early Aβ-induced cognitive impairment results from a general synaptic bias toward LTD events (Selkoe (2002) Science 298:789-791), dampening this form of synaptic plasticity might prevent cognitive decay. Therefore, it was determined whether in vivo inhibition of PTEN, a lipid phosphatase that is involved in LTD (Jurado, et al. (2010) EMBO J. 29:2827-2840), would rescue cognitive deficits in APP/PS1 mice. […]

[2] = system: acute mice slices; experiment: LTD of fEPSPs in acute hippocampal slices; format: cell-based; settings: peptide 10 μM, 1-2.5 hours incubation
Procedure: (§1) A concentric bipolar platinum-iridium stimulation electrode and a low-resistance glass recording microelectrode filled with aCSF (3-4 MΩ resistance) were placed in CA1 stratum radiatum to record the extracellular field excitatory postsynaptic potentials (fEPSPs). For each slice, an input-output curve was recorded to compare basal synaptic transmission at different conditions. This curve was also used to set the baseline fEPSP at ≈30% (for LTP experiments) or ≈50% (for LTD experiments) of maximal slope. Baseline stimulation was delivered every 15 seconds (0.01 ms duration pulses) for at least 20 minutes before beginning the experiment to ensure stability of the response. LTP was induced by using θ-burst stimulation (4 pulses at 100 Hz, with the bursts repeated at 5 Hz and each tetanus including three 10-burst trains separated by 15 seconds). LTD was induced using 900 pulses at 1 Hz. Responses were recorded for 1 hour after induction of LTP or LTD.
It was posited that the PTEN-PDZ peptide would saturate PDZ interaction sites of PTEN, consequently preventing anchoring of PTEN to PDZ proteins, and in this manner it would prevent LTD.

[3] = system: hippocampal CA3 and CA1 cells from acute slices; experiment: fEPSP input-output curve (basal synaptic transmission) in acute hippocampal slices exposed to protofibrillar Aβ42; format: cell-based, mice; settings: for basal synaptic transmission in the absence of Aβ treatment: peptide alone; for Aβ-induced synaptic depression: slices preincubated with peptide 1 hour before synthetic protofibrillar Aβ
Procedure: Mice were anesthetized with sodium pentothal (20 mg/kg ip) and decapitated. The brain was rapidly removed to ice-cold, oxygenated, dissection solution. Coronal slices (300 μm) were made with a vibratome (LEICA VT1200S) and slices were moved to a recovery chamber containing aCSF at room temperature for at least 1.5 hour before recording.
as §1
Dissection solution (employed for slicing) composition: 10 mM D-glucose, 4 mM KCl, 26 mM NaHCO3, 233.7 mM sucrose, 5 mM MgCl2, 1:1000 Phenol Red. Artificial CSF (employed for recovery and recording) composition: 119 mM NaCl, 2.5 mM KCl, 1 mM NaH2PO4, 11 mM glucose, 1.2 mM MgCl2, 2.5 mM CaCl2. Osmolarity was adjusted to […].
For the first approach, protofibrillar Aβ was prepared by promoting aggregation under high-salt conditions (258 μM Aβ42, room temperature incubation (Jan, et al. (2010) Nat. Protoc. 5:1186-1209). The kinetics of Aβ42 aggregation were followed by thioflavin T fluorescence and SDS-PAGE western blot analysis with the N-terminal anti-Aβ antibody 6E10. Also, the heterogeneous nature of these Aβ42 assemblies was evidenced by electron microscopy. Synaptic function was assessed by electrophysiological recordings of field excitatory postsynaptic potential (fEPSPs) between hippocampal CA3 and CA1 cells from acute slices prepared from 5-month-old mice. The results indicated a ≈60% decrease in the magnitude of synaptic transmission (input-output curve) when slices were incubated for 2 hours in aCSF containing pathogenic protofibrillar Aβ42 species (1 μM). This decrease in the basal synaptic transmission was prevented when Aβ was added to slices that were preincubated with the PTEN inhibitor (50 nM VO-OHpic) for 1 hour (VO-OHpic and Aβ were also present in the perfusion solution during electrophysiological recordings). VO-OHpic alone had no effect on basal synaptic transmission. […] The potency and specificity of this inhibitor have been documented previously (Rosivatz, et al. (2006) ACS Chem. Biol. 1:780-790).
The effect of these peptides on Aβ-treated neurons was subsequently tested.

[4] = biological target: T1, Aβ42 (Homo sapiens, UniProt P05067); experiment: Thioflavin-T fluorescence assay of Aβ42 aggregation; format: biochemical; settings: 50 nM VO-OHpic or 15 nM bPV(HOpic), 37° C.
T1 construct: Lyophilized Aβ42 peptide was purchased from Keck Facility at Yale University; purchased Keck Facility at Yale University; host or cells: synthetic peptide
T1 sequence (P05067 672-713): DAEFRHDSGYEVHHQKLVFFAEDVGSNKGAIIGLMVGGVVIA
Procedure: Freshly prepared Aβ42 was prepared as described for protofibrillar Aβ42. The Thioflavin-T (ThT) assay was carried out at 37° C., within a dark chamber in a 96-well plate. Each well contained 100 ng/μL of Aβ42, 20 μM ThT and 50 nM VO-OHpic or 15 nM bPV(HOpic). Fluorescence (λex=450 nm; λem=485 nm) was followed over time in a FLUOSTAR OPTIMA (BMG LabTech) fluorescence spectrophotometer. Samples were run in triplicates. […] Thus, the observed rescue of basal synaptic transmission, LTP and cognition, with VO-OHpic was not likely due to an altered aggregation state of Aβ upon PTEN inhibition.

[5] = system: APPswe/lnd-expressing neurons; experiment: Paired whole-cell recording of AMPAR-mediated EPSCs in APPswe/lnd-expressing CA1 neurons of organotypic hippocampal slices; format: cell-based, rat; settings: 15 nM bPV(HOpic) or 50 nM VO-OHpic during expression
Procedure: The effect of recombinant protein expression on synaptic transmission was evaluated by simultaneous double whole-cell recordings from pairs of nearby infected and uninfected CA1 neurons, under voltage clamp, while stimulating presynaptic Schaffer collateral fibers (under this configuration, recombinant proteins are expressed exclusively in the postsynaptic neuron).
The different versions of APP (APPwt, APPswe/lnd APPMV) and EGFP were co-expressed using an internal ribosomal entry site (IRES) construct. The EGFP-tagged versions of PTEN have been described (Jurado, et al. (2010) EMBO J. 29:2827-2840). All constructs were prepared in pSinRep5 for expression using Sindbis virus. Recombinant proteins were expressed in hippocampal CA1 pyramidal neurons from organotypic slice cultures. Organotypic hippocampal slices were prepared from postnatal day 5-7 rats and cultured during 6-8 days.
The external solution (aCSF) contained 119 mM NaCl, 2.5 mM KCl, 1 mM NaH2PO4, 11 mM glucose, 26 mM NaHCO3, 4 mM MgCl2, 4 mM CaCl2, 100 μM picrotoxin and 2 μM 2-chloroadenosine, pH 7.4, and was gassed with 95% O2 and 5% CO2. […] Bipolar stimulating electrodes were placed over Schaffer collateral fibers between 250 and 300 μm from the CA1 recorded cells, and synaptic responses were evoked with single voltage pulses (200 μs, up to 30 V). […]

Row | Structure (SMILES) | spatial learning task (novel object location, recognition index) [1] | LTD (fEPSP slope 50-60 minutes after induction) [2] | basal synaptic transmission in the absence of Aβ treatment [3] | Aβ-induced synaptic depression [3] | Aβ-induced synaptic depression ([3]; listed as N-myristoyl-QHSQITKV) | Aβ42 aggregation (ThT fluorescence) [4] | AMPAR-mediated EPSCs in APPswe/lnd-expressing neurons relative to uninfected cells [5]
1 | CCCCCCCCCCCCCC(=O)N[C@@H](CCC(N)=O)C(=O)N[C@H](Cc1c[nH]cn1)C(=O)N[C@@H](CO)C(=O)N[C@H](CCC(N)=O)C(=O)N[C@H](C(=O)N[C@@H](C(=O)N[C@@H](CCCCN)C(=O)N[C@@H](C(=O)O)C(C)C)C(C)O)C(C)CC (stereo partly shown) [PTEN-PDZ peptide, N-myristoyl-QHSQITKV] (Myristoyl-Q[dH]S[dQ][Ile(3ξ)][dThr(3ξ)]K[dV]-OH) | significant improvement | completely blocked LTD | neither peptide altered basal synaptic transmission | prevented synaptic depression | blocks Aβ-induced synaptic depression | – | –
2 | CCCCCCCCCCCCCC(=O)N[C@@H](CO)C(=O)N[C@@H](C(=O)N[C@@H](Cc1c[nH]cn1)C(=O)N[C@@H](C(=O)N[C@H](C(=O)N[C@H](CCC(N)=O)C(=O)N[C@@H](CCCCN)C(=O)N[C@H](CCC(N)=O)C(=O)O)C(C)CC)C(C)O)C(C)C (stereo partly shown) [scrambled peptide, N-myristoyl-SVHTIQKQ] (Myristoyl-S[dV]H[dThr(3ξ)][Ile(3ξ)][dQ]K[dQ]-OH) | – | did not have any effect | neither peptide altered basal synaptic transmission | did not | – | – | –
3 | O=C1C=C/C(=C(/[O-])O)N=C1.[K+].[O-][O-].[O-][O-].[O]=[V] [bPV(HOpic)] | – | – | – | – | – | does not alter Aβ42 aggregation | no longer depressed
